Laboratory results as given in patent US20200333324A1, “METHOD OF PREDICTING CLINICAL OUTCOME OF ANTICANCER AGENTS” (MITRA RXDX, INC., priority 2017, published 2020).

Legend:
Format in all cases: cell-based, human
PBNCs [1] = assay: FACS of CD3+/CD45+ lymphocytes for PD-1, CEACAM, LAG3, TIM3, OX40, ILDR2, 4-1-BB, GITR, PBNCs
Procedure: (§1) To further probe the phenotypic modulation mediated by treatment with Nivolumab, tumor sections or PBNCs from the same patient cultured for 3 days (72 hours) in the tumor microenvironment platform were treated with Nivolumab or IgG control for one day, followed by flow cytometry gating for lymphocytes based on their forward and side scatter properties. Lymphocytes were further gated for expression of both CD3 and CD45, and this population of cells was analyzed by FACS for expression of PD-1, CEACAM, LAG3, TIM3, OX40, ILDR2, 4-1-BB, and GITR.

Tumor sections [2] = assay: FACS of CD3+/CD45+ lymphocytes for PD-1, CEACAM, LAG3, TIM3, OX40, ILDR2, 4-1-BB, GITR, tumor sections
Procedure: as §1

CRC tumor tissue = assay: Granzyme B and Perforin secretion assays, CRC tumor sections in tumor microenvironment platform; conditions: 48 hours
Procedure: FIGS. 10A and 10B show quantification of results for Granzyme B and Perforin secretion assays for CRC tumor tissue cultured in the tumor microenvironment platform treated with Ipilimumab, Nivolumab, Ipilimumab+Nivolumab, FOLFIRI, or IgG control for 24 or 48 hours.
In another experiment, CRC tumor sections from the same patient cultured for 24 or 48 hours in the tumor microenvironment platform with Ipilimumab, Nivolumab, Ipilimumab+Nivolumab, FOLFIRI, or IgG as control were assayed for Granzyme B and Perforin secretion. Results are shown in FIG. 10A for the tumor microenvironment platform with tumor tissue from a predicted responder and FIG. 10B for the tumor microenvironment platform with tumor tissue from a predicted non-responder. After treatment with Nivolumab for 48 hours, there was an increase in Granzyme B secretion in the tumor microenvironment platform with tissue from the predicted responder compared to treatment with Ipilimumab or the control IgG. By contrast, at 48 hours in the tumor microenvironment platform with tissue from the predicted non-responder there was no increase in Granzyme B or Perforin secretion for treatment with Nivolumab.

PBNCs [3] = assay: FACS analysis for CD25, CD127 and FOXP3 expression, PBNCs
Procedure: (§2) The effect of treatment with Nivolumab and Pembrolizumab on CD25, CD127, and FOXP3 expression was then evaluated. Tumor sections or PBNCs from the same patient cultured for 3 days in the tumor microenvironment platform were treated with Pembrolizumab, Nivolumab, or IgG control for one day followed by FACS analysis for expression of CD25, CD127, and FOXP3.

HNSCC tumor tissue [4] = assay: H&E staining and IHC for Ki67 and Caspase 3 in tumor microenvironment platform; conditions: patient 2941
Procedure: The effects of Pembrolizumab and Nivolumab on proliferation in the tumor microenvironment platform were then evaluated. Tumor sections from the same patient cultured for 72 hours in the tumor microenvironment platform (performed in at least biological triplicate) were treated with Pembrolizumab, Nivolumab, or IgG as control. Tissue was subsequently formalin fixed and paraffin embedded, and processed for H&E staining and immuno histochemical staining (IHC) with Ki67 and Caspase 3 at day 3 in culture (T3). Baseline staining was determined at TO.
The effect of Pembrolizumab and Nivolumab on CD8^+ T cell tumor infiltration was then evaluated. Tumor sections from the same patient cultured for 72 hours in the tumor microenvironment platform were treated with Pembrolizumab, Nivolumab, or IgG as control and stained for H&E, Ki67, Caspase 3, and CD8 at day 3 in culture (T3). Baseline staining was determined at TO. […] CD8^+ T cell infiltration was evaluated in the tumor microenvironment platform with tumor tissue from the same patient, and comparisons for control vs Nivo, control vs Pembro, Nivo vs Pembro, and control vs Nivo vs Pembro for multiple patients are shown in FIG. 6 (each line represents results from the tumor microenvironment platform cultured with tumor tissue from a single individual).

Tumor sections [5] = assay: FACS analysis for CD25, CD127 and FOXP3 expression, tumor sections
Procedure: as §2

HNSCC tumor tissue [6] = assay: M-score clinical outcome predictor: tumor microenvironment platform assays (WST-1, LDH, ATP, glucose uptake, Caspase 3/8, Ki67, H&E) input into machine-trained algorithm; set-up: scale not given here
[7] = platform containing tumor tissue, vs IgG control

Nivolumab
CEACAM PBMCs (% total cells) (PBNCs [1]; CD3+/CD45+ lymphocytes, treated one day, control 0.12): 2.74 % total cells
LAG3 PBMCs (% total cells) (PBNCs [1]; CD3+/CD45+ lymphocytes, treated one day, control 0.14): 0.031 % total cells
OX40 PBMCs (% total cells) (PBNCs [1]; CD3+/CD45+ lymphocytes, treated one day, control 0.25): 0 % total cells
4-1-BB PBMCs (% total cells) (PBNCs [1]; CD3+/CD45+ lymphocytes, treated one day, control 0.27): 0.38 % total cells
GITR PBMCs (% total cells) (PBNCs [1]; CD3+/CD45+ lymphocytes, treated one day, control 0.30): 0.50 % total cells
ILDR2 PBMCs (% total cells) (PBNCs [1]; CD3+/CD45+ lymphocytes, treated one day, control 1.96): 2.67 % total cells
PD-1 PBMCs (% total cells) (PBNCs [1]; CD3+/CD45+ lymphocytes, treated one day, control 2.94): 0.31 % total cells
TIM3 PBMCs (% total cells) (PBNCs [1]; CD3+/CD45+ lymphocytes, treated one day, control 7.91): 13.9 % total cells
ILDR2^+/CD3^+/CD45^+ and GITR^+/CD3^+/CD45^+ cell populations (PBNCs [1]; platform containing only PBNCs, vs IgG control): No significant change
OX40 Tumor (% total cells) (Tumor sections [2]; CD3+/CD45+ lymphocytes, treated one day, control 1.70): 0 % total cells
CEACAM Tumor (% total cells) (Tumor sections [2]; CD3+/CD45+ lymphocytes, treated one day, control 2.04): 3.69 % total cells
LAG3 Tumor (% total cells) (Tumor sections [2]; CD3+/CD45+ lymphocytes, treated one day, control 2.22): 0.52 % total cells
GITR Tumor (% total cells) (Tumor sections [2]; CD3+/CD45+ lymphocytes, treated one day, control 2.60): 13.0 % total cells
4-1-BB Tumor (% total cells) (Tumor sections [2]; CD3+/CD45+ lymphocytes, treated one day, control 4.69): 7.56 % total cells
TIM3 Tumor (% total cells) (Tumor sections [2]; CD3+/CD45+ lymphocytes, treated one day, control 17.8): 19.9 % total cells
PD-1 Tumor (% total cells) (Tumor sections [2]; CD3+/CD45+ lymphocytes, treated one day, control 19.4): 20.5 % total cells
ILDR2 Tumor (% total cells) (Tumor sections [2]; CD3+/CD45+ lymphocytes, treated one day, control 24.4): 17.1 % total cells
number of GITR^+/CD3^+/CD45^+ lymphocytes (Tumor sections [2]; [7]): increase
number of ILDR2^+/CD3^+/CD45^+ lymphocytes (Tumor sections [2]; [7]): decrease
Granzyme B secretion (CRC tumor tissue; predicted non-responder): no increase
Perforin secretion (CRC tumor tissue; predicted non-responder): no increase
Granzyme B secretion (CRC tumor tissue; predicted responder, compared to Ipilimumab or control IgG): increase
CD25^+/FOXP3^− PBMCs (% total cells) (PBNCs [3]; Non-Responder, control 3.67): 1.40 % total cells
CD25^+/CD127^+ PBMCs (% total cells) (PBNCs [3]; Non-Responder, control 14.6): 25.1 % total cells
CD25^+/CD127^− PBMCs (% total cells) (PBNCs [3]; Non-Responder, control 15.1): 8.22 % total cells
CD25^−/FOXP3^− PBMCs (% total cells) (PBNCs [3]; Non-Responder, control 18.2): 7.90 % total cells
CD25^+/FOXP3^+ PBMCs (% total cells) (PBNCs [3]; Non-Responder, control 22.1): 29.0 % total cells
CD25^−/CD127^+ PBMCs (% total cells) (PBNCs [3]; Non-Responder, control 26.2): 44.4 % total cells
CD25^−/CD127^− PBMCs (% total cells) (PBNCs [3]; Non-Responder, control 44.1): 22.3 % total cells
CD25^− FOXP3^+ PBMCs (% total cells) (PBNCs [3]; Non-Responder, control 56.0): 61.7 % total cells
CD25^+/FOXP3^− PBMCs (% total cells) (PBNCs [3]; Responder, control 3.04): 8.91 % total cells
CD25^+/CD127^− PBMCs (% total cells) (PBNCs [3]; Responder, control 11.7): 6.53 % total cells
CD25^+/CD127^+ PBMCs (% total cells) (PBNCs [3]; Responder, control 16.8): 30.4 % total cells
CD25^+/FOXP3^+ PBMCs (% total cells) (PBNCs [3]; Responder, control 21.7): 24.0 % total cells
CD25^−/FOXP3^− PBMCs (% total cells) (PBNCs [3]; Responder, control 23.2): 29.8 % total cells
CD25^−/CD127^+ PBMCs (% total cells) (PBNCs [3]; Responder, control 24.8): 44.2 % total cells
CD25^−/CD127^− PBMCs (% total cells) (PBNCs [3]; Responder, control 46.6): 18.9 % total cells
CD25^− FOXP3^+ PBMCs (% total cells) (PBNCs [3]; Responder, control 52.1): 37.3 % total cells
proliferation (Ki67 IHC) (HNSCC tumor tissue [4]; 72 hours, vs IgG control): diminished proliferation
Caspase 3 activity (IHC) (HNSCC tumor tissue [4]; T3, associated with increased CD8^+ T cell infiltration): increased Caspase 3 activity
CD25^+/FOXP3^− Tumor (% total cells) (Tumor sections [5]; Non-Responder, control 6.52): 6.45 % total cells
CD25^+/CD127^+ Tumor (% total cells) (Tumor sections [5]; Non-Responder, control 19.6): 16.1 % total cells
CD25^−/CD127^− Tumor (% total cells) (Tumor sections [5]; Non-Responder, control 22.1): 21.7 % total cells
CD25^−/FOXP3^− Tumor (% total cells) (Tumor sections [5]; Non-Responder, control 23.6): 17.5 % total cells
CD25^+/CD127^− Tumor (% total cells) (Tumor sections [5]; Non-Responder, control 25.4): 22.1 % total cells
CD25^−/CD127^+ Tumor (% total cells) (Tumor sections [5]; Non-Responder, control 33.0): 40.1 % total cells
CD25^+/FOXP3^+ Tumor (% total cells) (Tumor sections [5]; Non-Responder, control 34.4): 29.5 % total cells
CD25^− FOXP3^+ Tumor (% total cells) (Tumor sections [5]; Non-Responder, control 35.5): 46.5 % total cells
CD25^−/CD127^− Tumor (% total cells) (Tumor sections [5]; Responder, control 12.2): 15.6 % total cells
CD25^− FOXP3^+ Tumor (% total cells) (Tumor sections [5]; Responder, control 18.9): 45.7 % total cells
CD25^−/FOXP3^− Tumor (% total cells) (Tumor sections [5]; Responder, control 20.3): 4.62 % total cells
CD25^+/CD127^− Tumor (% total cells) (Tumor sections [5]; Responder, control 23.0): 25.4 % total cells
CD25^−/CD127^+ Tumor (% total cells) (Tumor sections [5]; Responder, control 24.3): 31.8 % total cells
CD25^+/FOXP3^− Tumor (% total cells) (Tumor sections [5]; Responder, control 25.7): 5.20 % total cells
CD25^+/FOXP3^+ Tumor (% total cells) (Tumor sections [5]; Responder, control 35.1): 44.5 % total cells
CD25^+/CD127^+ Tumor (% total cells) (Tumor sections [5]; Responder, control 40.5): 27.2 % total cells
functional Treg cells (CD25, CD127, FOXP3 FACS) (Tumor sections [5]; platform containing tumor tissue): patient sample-dependent functional Treg cell depression
M-score (HNSCC tumor tissue [6]; Patient ID 2916): 13
M-score (HNSCC tumor tissue [6]; Patient ID 2926): 31
M-score (HNSCC tumor tissue [6]; Patient ID 2939): 5
M-score (HNSCC tumor tissue [6]; Patient ID 2942): 28
M-score (HNSCC tumor tissue [6]; Patient ID 2950): 16
M-score (HNSCC tumor tissue [6]; Patient ID 2963): 5
M-score (HNSCC tumor tissue [6]; Patient ID 2979): 9
M-score (HNSCC tumor tissue [6]; Patient ID 2980): 12
